Paper PMC6939882 (Molecular microbiology, 2017)

Assays:
Amy13K ΔCBMa-e = molecular target: T1, Amy13K ΔCBMa-e (Agathobacter rectalis, UniProt A0ABF7PGZ5); assay: isothermal titration calorimetry of hydrolysis; format: biochemical; details: 37 °C; only kcat/KM printed
T1 sequence (A0ABF7PGZ5 621-1364 limits assumed): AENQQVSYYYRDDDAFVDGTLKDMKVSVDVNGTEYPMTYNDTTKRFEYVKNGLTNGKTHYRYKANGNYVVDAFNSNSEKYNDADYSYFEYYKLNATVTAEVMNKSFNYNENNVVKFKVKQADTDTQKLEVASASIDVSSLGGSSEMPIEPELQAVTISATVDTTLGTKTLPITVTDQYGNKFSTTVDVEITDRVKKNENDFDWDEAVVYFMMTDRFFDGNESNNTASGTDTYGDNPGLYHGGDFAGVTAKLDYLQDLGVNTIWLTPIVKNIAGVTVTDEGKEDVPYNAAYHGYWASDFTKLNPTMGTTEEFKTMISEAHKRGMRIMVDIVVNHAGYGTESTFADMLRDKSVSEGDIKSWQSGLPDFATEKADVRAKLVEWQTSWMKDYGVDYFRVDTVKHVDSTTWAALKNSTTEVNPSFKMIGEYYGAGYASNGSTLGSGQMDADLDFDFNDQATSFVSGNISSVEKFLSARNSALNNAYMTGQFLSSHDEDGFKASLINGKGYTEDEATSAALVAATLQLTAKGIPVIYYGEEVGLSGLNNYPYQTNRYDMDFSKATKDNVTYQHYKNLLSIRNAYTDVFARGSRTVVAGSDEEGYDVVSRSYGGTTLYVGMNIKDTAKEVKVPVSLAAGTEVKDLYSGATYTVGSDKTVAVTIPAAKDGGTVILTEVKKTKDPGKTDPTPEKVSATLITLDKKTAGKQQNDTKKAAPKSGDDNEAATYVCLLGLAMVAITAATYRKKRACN

Amy13K WT = molecular target: T2, Amy13K WT (Agathobacter rectalis, UniProt A0ABF7PGZ5); assay: isothermal titration calorimetry of hydrolysis; format: biochemical; details: 37 °C; only kcat/KM printed
T2 sequence (A0ABF7PGZ5 44-1364): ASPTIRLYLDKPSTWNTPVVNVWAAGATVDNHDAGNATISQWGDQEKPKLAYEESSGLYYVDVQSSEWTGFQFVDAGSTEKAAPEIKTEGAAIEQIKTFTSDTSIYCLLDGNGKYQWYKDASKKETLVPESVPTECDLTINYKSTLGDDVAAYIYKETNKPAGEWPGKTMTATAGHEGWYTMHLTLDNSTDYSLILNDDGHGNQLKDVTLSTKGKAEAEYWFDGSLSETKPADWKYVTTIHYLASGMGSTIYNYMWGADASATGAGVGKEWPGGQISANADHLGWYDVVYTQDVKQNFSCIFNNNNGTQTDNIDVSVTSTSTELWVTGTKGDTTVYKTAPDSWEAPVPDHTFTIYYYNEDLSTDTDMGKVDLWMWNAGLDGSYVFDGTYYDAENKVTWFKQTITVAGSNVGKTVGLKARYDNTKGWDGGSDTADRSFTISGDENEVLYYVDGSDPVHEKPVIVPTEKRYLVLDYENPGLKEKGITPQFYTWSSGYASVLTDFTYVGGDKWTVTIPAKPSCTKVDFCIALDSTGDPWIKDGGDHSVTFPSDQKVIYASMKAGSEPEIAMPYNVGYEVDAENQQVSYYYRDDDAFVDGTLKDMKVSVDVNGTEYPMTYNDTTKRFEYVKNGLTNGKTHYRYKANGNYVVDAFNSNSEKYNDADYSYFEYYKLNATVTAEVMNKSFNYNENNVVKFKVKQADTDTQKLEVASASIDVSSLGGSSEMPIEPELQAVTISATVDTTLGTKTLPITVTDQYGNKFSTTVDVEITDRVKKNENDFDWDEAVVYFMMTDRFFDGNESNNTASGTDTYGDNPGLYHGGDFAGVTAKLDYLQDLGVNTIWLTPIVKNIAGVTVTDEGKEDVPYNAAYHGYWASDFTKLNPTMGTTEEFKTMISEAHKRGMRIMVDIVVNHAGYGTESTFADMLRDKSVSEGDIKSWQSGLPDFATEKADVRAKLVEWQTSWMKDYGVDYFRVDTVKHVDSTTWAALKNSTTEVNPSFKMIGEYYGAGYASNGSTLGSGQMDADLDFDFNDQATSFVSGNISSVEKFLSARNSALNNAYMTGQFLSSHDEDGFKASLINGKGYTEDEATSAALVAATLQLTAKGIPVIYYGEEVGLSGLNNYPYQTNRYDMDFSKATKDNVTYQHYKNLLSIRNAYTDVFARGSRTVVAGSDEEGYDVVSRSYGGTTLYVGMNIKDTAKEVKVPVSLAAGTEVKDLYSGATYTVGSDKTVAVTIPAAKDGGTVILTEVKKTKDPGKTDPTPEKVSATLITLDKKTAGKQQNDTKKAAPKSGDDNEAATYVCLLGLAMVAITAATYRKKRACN

Question: For `OC[C@H]1O[C@H](O[C@H]2[C@H](O)[C@@H](O)[C@@H](O[C@H]3[C@H](O)[C@@H](O)[C@@H](O[C@H]4[C@H](O)[C@@H](O)[C@@H](O[C@H]5[C@H](O)[C@@H](O)[C@@H](O[C@H]6[C@H](O)[C@@H](O)[C@@H](O[C@H]7[C@H](O)[C@@H](O)C(O)O[C@@H]7CO)O[C@@H]6CO)O[C@@H]5CO)O[C@@H]4CO)O[C@@H]3CO)O[C@@H]2CO)[C@H](O)[C@@H](O)[C@@H]1O` (some centres unmarked) [maltoheptaose], which “isothermal titration calorimetry of hydrolysis” value (Amy13K ΔCBMa-e) is on record?
Answer: The catalytic efficiency of the WT and ΔCBMa-e on maltoheptaose are

Question: And the “isothermal titration calorimetry of hydrolysis” value (Amy13K WT)?
Answer: The catalytic efficiency of the WT and ΔCBMa-e on maltoheptaose are
